# Results taken from US12076694B2, “Method of removing protein-bound substances by electrically conductive polymer” (Ming Chi University of Technology, priority 2019, dated 2024).
# Key:
# BSA = BSA (Bos taurus, UniProt P02769); experiment: Protein binding ratio by centrifugal ultrafiltration (30-kDa cutoff); conditions: 50 ppm toxin, BSA 4-40 g L^−1 in PBS buffer
# Protocol: For the dialysis experiment of PBUT pre-bonded BSA solution, 50 ppm of targeted uremic toxins were mixed with various amount of BSA (4, 20, and 40 g L^−1) and shaken for 24 h at 37° C. Collected samples (1 mL) were purified through centrifugation (12,000×g, 25° C., 5 min) using a Vivaspin centrifuge (Vivaspin 2, 30 kDa cutoff, GE Healthcare); the PBUTs were separated into the bottom device, thereby collecting BSA proteins from the top device.
# Because 4 g L^−1 BSA is closer to the normal content in mimic blood (1.5 g urea, 0.04 g L^−1 lysozyme, and 1 g L^−1 BSA), the BSA solution having the concentration of 4 g L^−1 was selected for the subsequent dialysis experiments.
# [1] = comparison value for the anticoagulant; cited from earlier work
# BSA, sequence (P02769 25-607): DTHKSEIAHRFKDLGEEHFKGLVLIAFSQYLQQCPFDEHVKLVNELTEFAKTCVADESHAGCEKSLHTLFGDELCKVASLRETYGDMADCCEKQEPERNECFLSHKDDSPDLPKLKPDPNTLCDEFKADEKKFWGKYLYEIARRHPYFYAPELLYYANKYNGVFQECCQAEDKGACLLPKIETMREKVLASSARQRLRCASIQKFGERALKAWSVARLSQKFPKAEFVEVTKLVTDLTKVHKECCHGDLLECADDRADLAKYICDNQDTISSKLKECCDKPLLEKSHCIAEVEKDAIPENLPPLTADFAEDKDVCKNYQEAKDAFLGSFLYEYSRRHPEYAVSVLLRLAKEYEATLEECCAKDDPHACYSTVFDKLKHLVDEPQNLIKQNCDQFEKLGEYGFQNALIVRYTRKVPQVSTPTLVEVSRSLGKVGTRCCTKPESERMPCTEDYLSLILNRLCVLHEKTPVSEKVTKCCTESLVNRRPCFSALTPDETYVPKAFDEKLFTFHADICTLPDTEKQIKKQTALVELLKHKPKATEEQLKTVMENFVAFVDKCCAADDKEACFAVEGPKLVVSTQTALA
Molecule,estimated protein-binding ratio (BSA),zeta potential [1] [mV]
"Cc1ccc(O)cc1 [PC, p-cresol]",89.4-94.4%,
"CN1CC(=O)NC1=N [CRT, creatinine]",1.0-2.1%,
"O=C(O)CNC(=O)c1ccccc1 [HA, hippuric acid]",18.3-36.9%,
heparin,,−39
